Assay results as given in patent US11419918B2, “Treatment of biliary cirrhosis based on oxyntomodulin analogue GLP-1R/GCGR dual-target agonist peptide” (Shenzhen Turier Biotech Co., Ltd., priority 2017, dated 2022).
Numbered stars: 1 amine (or outer) side, 2 acyl side, 3 side chain; on linkers, the order of the positions; unused ones are H or OH. Square brackets hold non-standard residues; d marks the D form. Primed or numbered codes have the meaning given here. Side chains are listed from the residue outwards. Ends that are not written are not given here. * marks the point of attachment. C18 diacid = O=C(O)CCCCCCCCCCCCCCCCC(=O)*; C16 diacid = O=C(O)CCCCCCCCCCCCCCC(=O)*; γGlu = O=C(O)[C@H](CCC(=O)[*:2])N[*:1]; Stearoyl = CCCCCCCCCCCCCCCCCC(=O)*; Palmitoyl = CCCCCCCCCCCCCCCC(=O)*; Nle = CCCC[C@H](N)C(=O)O; PEG2′ = not defined here; Aib = CC(C)(N)C(=O)O

Tested on: human hepatic stellate cells (LX-2)
Experiment: In vitro inhibition of hepatic fibrosis: expression of activation marker α-SMA in LX-2 cells (Western Blot, β-actin internal reference)
Type: cell-based
Conditions: 10.0 μM, 48 hours, negative control (PBS) = 100%
Description: Hepatic stellate cell strain LX-2 was selected to study and observe the effect of different doses of test substances on the expression of LX-2 cell activation marker α-SMA. Hepatic stellate cell LX-2 was laid on 35 mm cell culture plate, cultured with DMEM (high glucose)+10% FBS+1% double-antibody culture medium (Thermo Fisher), placed overnight when the cells grew to 70% convergence at 37° C. and under the condition of 5% CO2, and treated with the above GLP-1R/GCGR dual target agonist polypeptides 1-48 (dissolved in PBS) for 48 hours the next day morning to extract cell protein, carry out Western Blot, and take β-actin as internal reference and analyze the expression quantities of α-SMA and β-actin by a gray level of Image J 1.50i. PBS with the same volume as that in experimental group was added in negative control. […] The integrating gray level of α-SMA/β-actin in the negative control group was 100% to analyze the in vitro inhibition activity of hepatic fibrosis of tested polypeptide.

Going from “His-(D-Ser)-Gln-Gly-Thr-Phe-Thr-Ser-Asp-Lys(PEG2-PEG2-CO(CH2)14CH3)-Ser-Lys-Tyr-Leu-Asp-Aib-Arg-Arg-Ala-Gln-Asp-Phe-Val-Gln-Trp-Leu-Met-Asn-Thr-Gly-Gly-Pro-Ser-Ser-Gly-Ala-Pro-Pro-Pro-Ser-NH2 (H[dS]QGTFTSDK([PEG2′-PEG2′-Palmitoyl])SKYLD[Aib]RRAQDFVQWLMNTGGPSSGAPPPS-NH2) [Compound 31]” to “His-(D-Ser)-Gln-Gly-Thr-Phe-Thr-Ser-Asp-Lys(PEG2-PEG2-CO(CH2)14CH3)-Ser-Lys-Tyr-Leu-Asp-Aib-Arg-Arg-Ala-Gln-Asp-Phe-Val-Gln-Trp-Leu-Nle-Asn-Thr-Gly-Gly-Pro-Ser-Ser-Gly-Ala-Pro-Pro-Pro-Ser-NH2 (H[dS]QGTFTSDK([PEG2′-PEG2′-Palmitoyl])SKYLD[Aib]RRAQDFVQWL[Nle]NTGGPSSGAPPPS-NH2) [Compound 45]”, the “Relative expression of α-SMA (α-SMA/β-actin, %)” value falls from 36.89% to 32.22%.

First: His-(D-Ser)-Gln-Gly-Thr-Phe-Thr-Ser-Asp-Lys(PEG2-PEG2-CO(CH2)16CH3)-Ser-Lys-Tyr-Leu-Asp-Aib-Arg-Arg-Ala-Gln-Asp-Phe-Val-Gln-Trp-Leu-Met-Asn-Thr-Gly-Gly-Pro-Ser-Ser-Gly-Ala-Pro-Pro-Pro-Ser-NH2 (H[dS]QGTFTSDK([PEG2′-PEG2′-Stearoyl])SKYLD[Aib]RRAQDFVQWLMNTGGPSSGAPPPS-NH2) [Compound 32]
Second: His-(D-Ser)-Gln-Gly-Thr-Phe-Thr-Ser-Asp-Lys(PEG2-PEG2-CO(CH2)16CO2H)-Ser-Lys-Tyr-Leu-Asp-Aib-Arg-Arg-Ala-Gln-Asp-Phe-Val-Gln-Trp-Leu-Met-Asn-Thr-Gly-Gly-Pro-Ser-Ser-Gly-Ala-Pro-Pro-Pro-Ser-NH2 (H[dS]QGTFTSDK([PEG2′-PEG2′-C18 diacid])SKYLD[Aib]RRAQDFVQWLMNTGGPSSGAPPPS-NH2) [Compound 30]
The “Relative expression of α-SMA (α-SMA/β-actin, %)” value of the first is lower: 37.14% for the first, 55.53% for the second.

Going from “His-(D-Ser)-Gln-Gly-Thr-Phe-Thr-Ser-Asp-Lys(PEG2-PEG2-γGlu-CO(CH2)14CH3)-Ser-Lys-Tyr-Leu-Asp-Aib-Arg-Arg-Ala-Gln-Asp-Phe-Val-Gln-Trp-Leu-Leu-Asn-Thr-Gly-Gly-Pro-Ser-Ser-Gly-Ala-Pro-Pro-Pro-Ser-NH2 (H[dS]QGTFTSDK([PEG2′-PEG2′-γGlu-Palmitoyl])SKYLD[Aib]RRAQDFVQWLLNTGGPSSGAPPPS-NH2) [Compound 43]” to “His-(D-Ser)-Gln-Gly-Thr-Phe-Thr-Ser-Asp-Lys(PEG2-PEG2-γGlu-CO(CH2)16CO2H)-Ser-Lys-Tyr-Leu-Asp-Aib-Arg-Arg-Ala-Gln-Asp-Phe-Val-Gln-Trp-Leu-Leu-Asn-Thr-Gly-Gly-Pro-Ser-Ser-Gly-Ala-Pro-Pro-Pro-Ser-NH2 (H[dS]QGTFTSDK([PEG2′-PEG2′-γGlu-C18 diacid])SKYLD[Aib]RRAQDFVQWLLNTGGPSSGAPPPS-NH2) [Compound 47]”, the “Relative expression of α-SMA (α-SMA/β-actin, %)” value falls from 42.34% to 40.36%.

Compared with “His-(D-Ser)-Gln-Gly-Thr-Phe-Thr-Ser-Asp-Lys(PEG2-PEG2-γGlu-CO(CH2)16CO2H)-Ser-Lys-Tyr-Leu-Asp-Aib-Arg-Arg-Ala-Gln-Asp-Phe-Val-Gln-Trp-Leu-Nle-Asn-Thr-Gly-Gly-Pro-Ser-Ser-Gly-Ala-Pro-Pro-Pro-Ser-NH2 (H[dS]QGTFTSDK([PEG2′-PEG2′-γGlu-C18 diacid])SKYLD[Aib]RRAQDFVQWL[Nle]NTGGPSSGAPPPS-NH2) [Compound 48]”, “His-(D-Ser)-Gln-Gly-Thr-Phe-Thr-Ser-Asp-Lys(PEG)-PEG2-γGlu-CO(CH2)14CH3)-Ser-Lys-Tyr-Leu-Asp-Aib-Arg-Arg-Ala-Gln-Asp-Phe-Val-Gln-Trp-Leu-Met-Asn-Thr-Gly-Gly-Pro-Ser-Ser-Gly-Ala-Pro-Pro-Pro-Ser-NH2 (H[dS]QGTFTSDKSKYLD[Aib]RRAQDFVQWLMNTGGPSSGAPPPS-NH2; not fully specified (residue 10); printed as His-(D-Ser)-Gln-Gly-Thr-Phe-Thr-Ser-Asp-Lys(PEG2-PEG2-γGln-CO(CH2)14CH3)-Ser-Lys-Tyr-Leu-Asp-Aib-Arg-Arg-Ala-Gln-Asp-Phe-Val-Gln-Trp-Leu-Met-Asn-Thr-Gly-Gly-Pro-Ser-Ser-Gly-Ala-Pro-Pro-Pro-Ser-NH2; also: first PEG unit on Lys10 of unstated size) [Compound 4]” is lower in “Relative expression of α-SMA (α-SMA/β-actin, %)” value: 43.25% for the first, 33.50% for the second.

Going from “His-(D-Ser)-Gln-Gly-Thr-Phe-Thr-Ser-Asp-Lys(PEG)-PEG2-γGlu-CO(CH2)16CO2H)-Ser-Lys-Tyr-Leu-Asp-Aib-Arg-Arg-Ala-Gln-Asp-Phe-Val-Gln-Trp-Leu-Met-Asn-Thr-Gly-Gly-Pro-Ser-Ser-Gly-Ala-Pro-Pro-Pro-Ser-NH2 (H[dS]QGTFTSDKSKYLD[Aib]RRAQDFVQWLMNTGGPSSGAPPPS-NH2; not fully specified (residue 10); also: first PEG unit on Lys10 of unstated size) [Compound 5]” to “His-(D-Ser)-Gln-Gly-Thr-Phe-Thr-Ser-Asp-Tyr-Ser-Lys(PEG2-PEG2-CO(CH2)14CH3)-Lys-Leu-Asp-Aib-Arg-Arg-Ala-Gln-Asp-Phe-Val-Gln-Trp-Leu-Met-Asn-Thr-Gly-Gly-Pro-Ser-Ser-Gly-Ala-Pro-Pro-Pro-Ser-NH2 (H[dS]QGTFTSDYSK([PEG2′-PEG2′-Palmitoyl])KLD[Aib]RRAQDFVQWLMNTGGPSSGAPPPS-NH2) [Compound 9]”, the “Relative expression of α-SMA (α-SMA/β-actin, %)” value rises from 36.04% to 41.86%.

Compared with “His-(D-Ser)-Gln-Gly-Thr-Phe-Thr-Ser-Asp-Tyr-Ser-Lys(PEG2-PEG2-CO(CH2)16CO2H)-Lys-Leu-Asp-Aib-Arg-Arg-Ala-Gln-Asp-Phe-Val-Gln-Trp-Leu-Met-Asn-Thr-Gly-Gly-Pro-Ser-Ser-Gly-Ala-Pro-Pro-Pro-Ser-NH2 (H[dS]QGTFTSDYSK([PEG2′-PEG2′-C18 diacid])KLD[Aib]RRAQDFVQWLMNTGGPSSGAPPPS-NH2) [Compound 2]”, “His-(D-Ser)-Gln-Gly-Thr-Phe-Thr-Ser-Asp-Tyr-Ser-Lys(PEG2-PEG2-γGlu-CO(CH2)14CH3)-Lys-Leu-Asp-Aib-Arg-Arg-Ala-Gln-Asp-Phe-Val-Gln-Trp-Leu-Met-Asn-Thr-Gly-Gly-Pro-Ser-Ser-Gly-Ala-Pro-Pro-Pro-Ser-NH2 (H[dS]QGTFTSDYSK([PEG2′-PEG2′-γGlu-Palmitoyl])KLD[Aib]RRAQDFVQWLMNTGGPSSGAPPPS-NH2) [Compound 1]” is higher in “Relative expression of α-SMA (α-SMA/β-actin, %)” value: 41.62% for the first, 63.5% for the second.

First: His-(D-Ser)-Gln-Gly-Thr-Phe-Thr-Ser-Asp-Tyr-Ser-Lys-Tyr-Leu-Asp-Aib-Lys(PEG2-PEG2-γGlu-CO(CH2)14CH3)-Arg-Ala-Gln-Asp-Phe-Val-Gln-Trp-Leu-Met-Asn-Thr-Gly-Gly-Pro-Ser-Ser-Gly-Ala-Pro-Pro-Pro-Ser-NH2 (H[dS]QGTFTSDYSKYLD[Aib]K([PEG2′-PEG2′-γGlu-Palmitoyl])RAQDFVQWLMNTGGPSSGAPPPS-NH2) [Compound 33]
Second: His-(D-Ser)-Gln-Gly-Thr-Phe-Thr-Ser-Asp-Tyr-Ser-Lys-Tyr-Leu-Asp-Glu-Lys-Ala-Ala-Lys(PEG2-PEG2-γGlu-CO(CH2)14CH3)-Glu-Phe-Ile-Glu-Trp-Leu-Leu-Arg-Ala-NH2 (H[dS]QGTFTSDYSKYLDEKAAK([PEG2′-PEG2′-γGlu-Palmitoyl])EFIEWLLRA-NH2) [Compound 23]
The “Relative expression of α-SMA (α-SMA/β-actin, %)” value of the first is lower: 35.45% for the first, 45.91% for the second.

Going from “His-(D-Ser)-Gln-Gly-Thr-Phe-Thr-Ser-Asp-Tyr-Ser-Lys-Tyr-Leu-Asp-Glu-Lys-Ala-Ala-Lys(PEG2-PEG2-γGlu-CO(CH2)14CH3)-Glu-Phe-Ile-Glu-Trp-Leu-Leu-Asn-Gly-Gly-Pro-Ser-Ser-Gly-Ala-Pro-Pro-Pro-Ser-NH2 (H[dS]QGTFTSDYSKYLDEKAAK([PEG2′-PEG2′-γGlu-Palmitoyl])EFIEWLLNGGPSSGAPPPS-NH2) [Compound 29]” to “His-(D-Ser)-Gln-Gly-Thr-Phe-Thr-Ser-Asp-Tyr-Ser-Lys-Tyr-Leu-Asp-Glu-Lys-Ala-Ala-Lys(PEG2-PEG2-γGlu-CO(CH2)14CO2H)-Glu-Phe-Ile-Glu-Trp-Leu-Leu-Asn-Gly-Gly-Pro-Ser-Ser-Gly-Ala-Pro-Pro-Pro-Ser-NH2 (H[dS]QGTFTSDYSKYLDEKAAK([PEG2′-PEG2′-γGlu-C16 diacid])EFIEWLLNGGPSSGAPPPS-NH2) [Compound 27]”, the “Relative expression of α-SMA (α-SMA/β-actin, %)” value falls from 49.36% to 32.34%.

Going from “His-(D-Ser)-Gln-Gly-Thr-Phe-Thr-Ser-Asp-Tyr-Ser-Lys-Tyr-Leu-Asp-Glu-Lys-Ala-Ala-Lys(PEG2-PEG2-γGlu-CO(CH2)16CH3)-Glu-Phe-Ile-Glu-Trp-Leu-Leu-Arg-Ala-NH2 (H[dS]QGTFTSDYSKYLDEKAAK([PEG2′-PEG2′-γGlu-Stearoyl])EFIEWLLRA-NH2) [Compound 24]” to “His-(D-Ser)-Gln-Gly-Thr-Phe-Thr-Ser-Asp-Tyr-Ser-Lys-Tyr-Leu-Asp-Glu-Lys-Ala-Ala-Lys(PEG2-PEG2-γGlu-CO(CH2)16CH3)-Glu-Phe-Ile-Glu-Trp-Leu-Leu-Asn-Gly-Gly-Pro-Ser-Ser-Gly-Ala-Pro-Pro-Pro-Ser-NH2 (H[dS]QGTFTSDYSKYLDEKAAK([PEG2′-PEG2′-γGlu-Stearoyl])EFIEWLLNGGPSSGAPPPS-NH2) [Compound 28]”, the “Relative expression of α-SMA (α-SMA/β-actin, %)” value rises from 32.42% to 37.62%.

“His-(D-Ser)-Gln-Gly-Thr-Phe-Thr-Ser-Asp-Tyr-Ser-Lys-Tyr-Leu-Asp-Glu-Lys-Ala-Ala-Lys(PEG2-PEG2-γGlu-CO(CH2)16CO2H)-Glu-Phe-Ile-Glu-Trp-Leu-Leu-Arg-Ala-NH2 (H[dS]QGTFTSDYSKYLDEKAAK([PEG2′-PEG2′-γGlu-C18 diacid])EFIEWLLRA-NH2) [Compound 18]” was tested, and the “Relative expression of α-SMA (α-SMA/β-actin, %)” value was 45.60%.
